The text below walks through data of patent US11066396B2 (priority 2016, dated 2021).

One test has as its target HDAC8 (Homo sapiens (Human), UniProt Q9BY41). To be noted: read-out: HDAC8 IC50.
The target of the next test is HDAC1 (Homo sapiens (Human), UniProt Q13547). The settings on record: read-out: HDAC1 IC50.

As a reminder, the IC50 is the concentration that inhibits the measured activity by half.

HDAC8, sequence (Q9BY41 whole entry): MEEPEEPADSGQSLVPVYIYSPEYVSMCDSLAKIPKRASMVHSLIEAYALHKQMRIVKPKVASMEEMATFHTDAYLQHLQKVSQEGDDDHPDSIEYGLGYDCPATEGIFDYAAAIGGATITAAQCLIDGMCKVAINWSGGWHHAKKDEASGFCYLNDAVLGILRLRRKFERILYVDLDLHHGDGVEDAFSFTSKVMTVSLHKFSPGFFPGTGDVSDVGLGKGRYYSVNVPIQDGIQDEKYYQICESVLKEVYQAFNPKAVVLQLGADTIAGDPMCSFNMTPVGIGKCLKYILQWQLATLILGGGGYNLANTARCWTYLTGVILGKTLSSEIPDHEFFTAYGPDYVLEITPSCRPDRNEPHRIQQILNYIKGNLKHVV
HDAC1, sequence (Q13547 whole entry): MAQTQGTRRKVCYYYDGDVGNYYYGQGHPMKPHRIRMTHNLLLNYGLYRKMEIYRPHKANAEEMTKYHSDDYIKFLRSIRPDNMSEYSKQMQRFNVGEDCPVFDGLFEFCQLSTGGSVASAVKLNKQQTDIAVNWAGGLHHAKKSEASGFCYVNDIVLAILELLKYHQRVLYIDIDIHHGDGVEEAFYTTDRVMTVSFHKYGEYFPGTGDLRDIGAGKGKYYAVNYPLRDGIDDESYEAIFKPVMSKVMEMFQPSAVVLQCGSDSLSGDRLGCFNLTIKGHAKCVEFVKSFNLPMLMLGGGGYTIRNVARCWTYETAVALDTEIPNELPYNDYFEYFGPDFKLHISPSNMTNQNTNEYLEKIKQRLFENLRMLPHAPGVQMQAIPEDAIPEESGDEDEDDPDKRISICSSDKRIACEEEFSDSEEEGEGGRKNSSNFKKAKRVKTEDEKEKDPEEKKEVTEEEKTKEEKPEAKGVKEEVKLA

`O=C(N(Cc1ccc(-c2noc(C(F)(F)F)n2)cn1)c1cccc(F)c1)C1(CN2CCOCC2)CC1` [Example 65, N-(3-fluorophenyl)-1-(morpholinomethyl)-N-((5-(5-(trifluoromethyl)-1,2,4-oxadiazol-3-yl)pyridin-2-yl)methyl)cyclopropane-1-carboxamide]: the results for the IC50 at HDAC8 and on HDAC1 were 3000 nM and 240 nM, respectively.

For `CN(C)c1cccc(COc2cc(-c3noc(C(F)(F)F)n3)ccn2)n1` [Example 101, N,N-dimethyl-6-(((4-(5-(trifluoromethyl)-1,2,4-oxadiazol-3-yl)pyridin-2-yl)oxy)methyl)pyridin-2-amine], the half-inhibitory concentration (IC50) on HDAC8 was 17000 nM; at HDAC1 it was 20000 nM.

In the case of `O=C1CC[C@@H](c2nc3ccccc3o2)N1c1ccc(-c2noc(C(F)(F)F)n2)cc1` [Example 104, (S)-5-(benzo[d]oxazol-2-yl)-1-(4-(5-(trifluoromethyl)-1,2,4-oxadiazol-3-yl)phenyl)pyrrolidin-2-one], the values for the IC50 on HDAC8 and at HDAC1 were 440 nM and 120 nM, respectively.

Take `CN1CC(C(=O)N(Cc2ccc(-c3noc(C(F)(F)F)n3)cn2)c2cccc(F)c2)CCC1=O` (racemic) [Example 402, N-(3-fluorophenyl)-1-methyl-6-oxo-N-({5-[5-(trifluoromethyl)-1,2,4-oxadiazol-3-yl]pyridin-2-yl}methyl)piperidine-3-carboxamide]: the IC50 was 2600 nM at HDAC8 and 340 nM on HDAC1.

In the case of `Cn1ccc(NCc2ccc(-c3noc(C(F)(F)F)n3)cn2)cc1=O` [Example 358, 1-methyl-4-[({5-[5-(trifluoromethyl)-1,2,4-oxadiazol-3-yl]pyridin-2-yl}methyl)amino]pyridin-2(1H)-one], the IC50 on HDAC8 worked out at 2400 nM; on HDAC1, 890 nM.

`O=c1ccc2ccc(Br)cc2n1Cc1ccc(-c2noc(C(F)(F)F)n2)cc1` [Example 321, 7-bromo-1-{4-[5-(trifluoromethyl)-1,2,4-oxadiazol-3-yl]benzyl}quinolin-2(1H)-one]: the concentration for half-maximal inhibition (IC50) on HDAC8 was 2600 nM; at HDAC1 it was 210 nM.

Take `FC(F)(F)c1nc(-c2ccc(CNc3ccc4nccn4c3)nc2)no1` [Example 357, N-({5-[5-(trifluoromethyl)-1,2,4-oxadiazol-3-yl]pyridin-2-yl}methyl)imidazo[1,2-a]pyridin-6-amine]: the IC50 stood at 960 nM at HDAC8 and 210 nM at HDAC1.

On to `CC(C)NC(=O)c1ccccc1NCc1ccc(-c2noc(C(F)(F)F)n2)cn1` [Example 443, N-(1-methylethyl)-2-[({5-[5-(trifluoromethyl)-1,2,4-oxadiazol-3-yl]pyridin-2-yl}methyl)amino]benzamide], for which the IC50 on HDAC8 stood at 1400 nM; on HDAC1, 1200 nM.

Consider `O=C(CC1COCCO1)N(Cc1ccc(-c2noc(C(F)(F)F)n2)cc1)c1cccc(C(F)(F)F)c1` (racemic) [Example 95, 2-(1,4-dioxan-2-yl)-N-(4-(5-(trifluoromethyl)-1,2,4-oxadiazol-3-yl)benzyl)-N-(3-(trifluoromethyl)phenyl)acetamide], for which the results for the concentration for half-maximal inhibition (IC50) on HDAC8 and at HDAC1 were 2000 nM and 1300 nM, respectively.

Take `FC(F)(F)c1nc(-c2ccnc(OC[C@@H]3C[C@@H]3c3ncccn3)c2)no1` [Example 424, 2-{(1S,2R)-2-[({4-[5-(trifluoromethyl)-1,2,4-oxadiazol-3-yl]pyridin-2-yl}oxy)methyl]cyclopropyl}pyrimidine]: the 50% inhibitory concentration (IC50) on HDAC8 came out at 320 nM; on HDAC1 it was 2600 nM.

For `FC(F)(F)c1nc(-c2ccc(COc3ccc4ccccc4n3)nc2)no1` [Example 461, 2-({5-[5-(trifluoromethyl)-1,2,4-oxadiazol-3-yl]pyridin-2-yl}methoxy)quinoline], the half-maximal inhibitory concentration (IC50) on HDAC8 worked out at 21000 nM; at HDAC1, 500 nM.

Take `Cc1n[nH]c2c1CC(NCc1ccc(-c3noc(C(F)(F)F)n3)cn1)CC2` (racemic) [Example 372, 3-methyl-N-({5-[5-(trifluoromethyl)-1,2,4-oxadiazol-3-yl]pyridin-2-yl}methyl)-4,5,6,7-tetrahydro-1H-indazol-5-amine]: the IC50 at HDAC8 came to 2900 nM; at HDAC1, 400 nM.

As to `CC(C)(C(=O)N(Cc1ccc(-c2noc(C(F)(F)F)n2)cn1)c1cccc(F)c1)n1cncn1` [Example 392, N-(3-fluorophenyl)-2-methyl-2-(1H-1,2,4-triazol-1-yl)-N-({5-[5-(trifluoromethyl)-1,2,4-oxadiazol-3-yl]pyridin-2-yl}methyl)propanamide], the concentration for half-maximal inhibition (IC50) at HDAC8 turned out to be 3100 nM; at HDAC1 it was 480 nM.

Turning to `O=C([C@@H]1CCC(=O)N1c1cc(F)c(-c2noc(C(F)(F)F)n2)cc1F)N1CCCc2ccccc21` [Example 334, (5S)-1-{2,5-difluoro-4-[5-(trifluoromethyl)-1,2,4-oxadiazol-3-yl]phenyl}-5-(3,4-dihydroquinolin-1(2H)-ylcarbonyl)pyrrolidin-2-one], the IC50 at HDAC8 stood at 19000 nM; at HDAC1, 4400 nM.

As for `Fc1ccc(C2COCCN2c2ccc(-c3noc(C(F)(F)F)n3)cn2)cc1` (racemic) [Example 142, 3-(4-fluorophenyl)-4-(5-(5-(trifluoromethyl)-1,2,4-oxadiazol-3-yl)pyridin-2-yl)morpholine], the IC50 was 1900 nM on HDAC8 and 500 nM on HDAC1.

Turning to `CN(C)C(=O)c1cccc(NCc2ccc(-c3noc(C(F)(F)F)n3)cn2)c1` [Example 438, N,N-dimethyl-3-[({5-[5-(trifluoromethyl)-1,2,4-oxadiazol-3-yl]pyridin-2-yl}methyl)amino]benzamide], the figures for the half-maximal inhibitory concentration (IC50) at HDAC8 and at HDAC1 were 1000 nM and 520 nM, respectively.

Consider `Cc1cn(C(C)C(=O)N(Cc2ccc(-c3noc(C(F)(F)F)n3)cn2)c2cccc(F)c2)nn1` (racemic) [Example 64, N-(3-fluorophenyl)-2-(4-methyl-1H-1,2,3-triazol-1-yl)-N-((5-(5-(trifluoromethyl)-1,2,4-oxadiazol-3-yl)pyridin-2-yl)methyl)propanamide], for which the concentration for half-maximal inhibition (IC50) at HDAC8 was determined as 2800 nM; at HDAC1, 200 nM.

Consider `CC(=O)N1CCN(CC(=O)N(Cc2ccc(-c3noc(C(F)(F)F)n3)cc2)c2cccc(C(F)(F)F)c2)CC1` [Example 69, 2-(4-acetylpiperazin-1-yl)-N-(4-(5-(trifluoromethyl)-1,2,4-oxadiazol-3-yl)benzyl)-N-(3-(trifluoromethyl)phenyl)acetamide], for which the concentration for half-maximal inhibition (IC50) turned out to be 2600 nM on HDAC8 and 1300 nM at HDAC1.

With `OCc1ccnc(NCc2ccc(-c3noc(C(F)(F)F)n3)cc2)n1` [Example 418, [2-({4-[5-(trifluoromethyl)-1,2,4-oxadiazol-3-yl]benzyl}amino)pyrimidin-4-yl]methanol], the values for the IC50 at HDAC8 and at HDAC1 were 3200 nM and 3600 nM, respectively.

For the molecule `NC(=O)c1ccnc(NCc2ccc(-c3noc(C(F)(F)F)n3)cn2)c1` [Example 442, 2-[({5-[5-(trifluoromethyl)-1,2,4-oxadiazol-3-yl]pyridin-2-yl}methyl)amino]pyridine-4-carboxamide], the IC50 on HDAC8 worked out at 750 nM; at HDAC1, 280 nM.

With `Cc1cccc(CCOc2cc(-c3noc(C(F)(F)F)n3)ccn2)n1` [Example 139, 3-(2-(2-(6-methylpyridin-2-yl)ethoxy)pyridin-4-yl)-5-(trifluoromethyl)-1,2,4-oxadiazole], the values for the 50% inhibitory concentration (IC50) on HDAC8 and at HDAC1 were 4600 nM and 3400 nM, respectively.

On to `CN(C)CC(=O)N(Cc1ccc(-c2noc(C(F)(F)F)n2)cc1)c1cccc(C(F)(F)F)c1` [Example 83, 2-(dimethylamino)-N-(4-(5-(trifluoromethyl)-1,2,4-oxadiazol-3-yl)benzyl)-N-(3-(trifluoromethyl)phenyl)acetamide], for which the values for the half-maximal inhibitory concentration (IC50) at HDAC8 and on HDAC1 were 3500 nM and 1200 nM, respectively.

With `FC(F)(F)c1nc(-c2ccc(COc3ncccn3)cc2)no1` [Example 457, 2-({4-[5-(trifluoromethyl)-1,2,4-oxadiazol-3-yl]benzyl}oxy)pyrimidine], the IC50 on HDAC8 amounted to 730 nM; on HDAC1 it was 2600 nM.

On to `OCc1ccnc(NCc2ccc(-c3noc(C(F)(F)F)n3)cn2)c1` [Example 367, {2-[({5-[5-(trifluoromethyl)-1,2,4-oxadiazol-3-yl]pyridin-2-yl}methyl)amino]pyridin-4-yl}methanol], for which the figures for the IC50 at HDAC8 and on HDAC1 were 870 nM and 820 nM, respectively.

For the molecule `Cn1ccc(CN(Cc2ccc(-c3noc(C(F)(F)F)n3)cc2)c2cccc(C(F)(F)F)c2)n1` [Example 96, N-((1-methyl-1H-pyrazol-3-yl)methyl)-3-(trifluoromethyl)-N-(4-(5-(trifluoromethyl)-1,2,4-oxadiazol-3-yl)benzyl)aniline], the half-inhibitory concentration (IC50) stood at 30000 nM on HDAC8 and 2400 nM on HDAC1.

Turning to `FC(F)(F)c1nc(-c2ccc(CN(c3ccccn3)c3ccccn3)cc2)no1` [Example 27, N-(Pyridin-2-yl)-N-(4-(5-(trifluoromethyl)-1,2,4-oxadiazol-3-yl)benzyl)pyridin-2-amine], the IC50 at HDAC8 stood at 4800 nM; at HDAC1, 3700 nM.

`CN1CCOC(CNCc2ccc(-c3noc(C(F)(F)F)n3)cn2)C1` (racemic) [Example 452, 1-(4-methylmorpholin-2-yl)-N-({5-[5-(trifluoromethyl)-1,2,4-oxadiazol-3-yl]pyridin-2-yl}methyl)methanamine]: the IC50 at HDAC8 stood at 2400 nM; at HDAC1, 2800 nM.

As to `O=c1ccc2ccccc2n1Cc1ccc(-c2noc(C(F)(F)F)n2)cc1` [Example 28, 1-(4-(5-(Trifluoromethyl)-1,2,4-oxadiazol-3-yl)benzyl)quinolin-2(1H)-one], the results for the IC50 at HDAC8 and at HDAC1 were 1600 nM and 760 nM, respectively.

`O=C1CCc2cccc(C(F)(F)F)c2N1Cc1ccc(-c2noc(C(F)(F)F)n2)cn1` [Example 475, 8-(trifluoromethyl)-1-({5-[5-(trifluoromethyl)-1,2,4-oxadiazol-3-yl]pyridin-2-yl}methyl)-3,4-dihydroquinolin-2(1H)-one]: the results for the half-inhibitory concentration (IC50) on HDAC8 and at HDAC1 were 5600 nM and 880 nM, respectively.

As for `CC(C)N1CCC(NCc2ccc(-c3noc(C(F)(F)F)n3)cn2)C1=O` (racemic) [Example 435, 1-(1-methylethyl)-3-[({5-[5-(trifluoromethyl)-1,2,4-oxadiazol-3-yl]pyridin-2-yl}methyl)amino]pyrrolidin-2-one], the figures for the IC50 at HDAC8 and at HDAC1 were 4600 nM and 4400 nM, respectively.
